Assays:
Type in all cases: cell-based, human
[1] = system: p160 BCR/p185 BCR-ABL complexes; experiment: Co-precipitated Bcr-Abl in anti-BCR (1256-1271) immunokinase assay of treated SUP-B15 cells; settings: antisense compared to sense treated
Description: (§1) SUP B15 cells were treated with anti-sense BCR oligonucleotides as in FIG. 12. Equal amounts of cells processed from sense and antisense treated cultures were harvested at day 7. Cells were analyzed for Bcr protein and Bcr/Bcr-Abl complexes by assaying with an antibody to the carboxy terminal of Bcr, as described (Liu et al., 1993). Lane 1 is an SDS gel pattern of the sense treated culture; lane 2 is the assay performed with peptide-blocked antibody. Lane 3 is the pattern from anti-sense treated culture; lane 4 is the peptide-blocked control. […] Quantitation measurements indicate that the level of Bcr protein was reduced about 10-fold by antisense treatment compared to sense, when normalized for the amount of Abl protein in the cultures.
(§2) In this study, equal amounts of the sense and the antisense oligonucleotide treated B15 cells were analyzed.
(§3) These antibodies detect Bcr directly but not Bcr-Abl protein. However because Bcr can complex with Bcr-Abl, this assay also detects Bcr-Abl which is co-precipitated along with Bcr.

c-Abl = experiment: Western blotting with anti-Abl monoclonal antibody 8E9 of treated SUP-B15 cells
Description: (§4) SUP-B15 cells express p185 BCR-ABL; they were derived from a patient with Philadelphia chromosome-positive ALL. One-tenth of the cells harvested in the study shown in FIG. 13 was assayed for Bcr-Abl expression by Western blotting with the anti-Abl monoclonal antibody 8E9. […] Similarly, the Abl protein was reduced about 26% in the anti-sense treated culture compared to sense. Quantitation was done by a densitometer SI unit (Molecular Dynamics).
Using c-Abl as an internal control, the actual reduction of p160 BCR in B15 cells by the antisense treatment is about 10 fold.

M3.16 cells = experiment: Growth of M3.16 cells, trypan blue exclusion; settings: DMEM 10% FCS, 10 μM at day 1, half at day 5, light microscopy at day 9
Description: FIG. 20B, M3.16 cells cultured in 10% FCS containing DMEM media with either the 3′ BCR antisense oligonucleotides (open squares) or the sense oligonucleotide (closed squares) as above. Oligonucleotides were added at day 1 at a final concentration of 10 μM and added again at day 5 at half of the initial concentration. Cell viability was determined by trypan blue dye exclusion. The data are the mean +/−SEM of a triplicate analysis.
For this particular study, the cell number was followed up for a longer period of time (11 days) and oligonucleotides were added again at day 5 at half of the initial concentration.

p160 BCR = experiment: Immunokinase assay with anti-BCR (1256-1271) on oligonucleotide treated SUP-B15 cells
Description: as §1
The effects of the sense and antisense 3′ BCR oligonucleotides were tested on BCR expression in SUP-B15 cells, a cell line derived from a Ph^1-positive acute lymphocytic leukemia patient that expresses p185 BCR-ABL. Immunokinase assays were performed with anti-BCR (1256-1271) peptide antibody (the antibody detects Bcr proteins but not Bcr-Abl proteins) to determine the level of BCR expression in B15 cells after 7 days treatment with either the sense or antisense 3′ BCR oligonucleotides (FIG. 13, lanes 1 and 3).
as §3
Incubation of these immune complexes with labeled ATP causes tyrosine phosphorylation of Bcr by Bcr-Abl and autophosphorylation of Bcr-Abl (Liu et al., 1993). […] Using Abl Western blot data as an internal control for mass, the specific reduction in Bcr is estimated to be about 10-fold.

P185 BCR-ABL = experiment: Western blotting with anti-Abl monoclonal antibody 8E9 of treated SUP-B15 cells
Description: as §4, §2

SUP-B15 cells [2] = experiment: Survival of SUP-B15 cells in low serum, trypan blue exclusion; settings: 5% FCS, 10 μM
Description: SUP-B15 cells (2×10^6 cells) were maintained in RPMI medium containing 5% fetal calf serum. Cells will not grow under these conditions and will slowly die off since cell growth requires 20% serum. Cells were treated with the 3′ BCR anti-sense (open squares) or sense oligo (closed squares) at a concentration of 10 μM. The number of viable cells was determined by trypan blue dye exclusion. The data are expressed as the mean (+/−SEM) of three replicates.
B15 cells were cultured in a low serum containing media [5% fetal calf serum (FCS)]. These cells normally require 20% FCS. A batch of B15 cells (2.2×10^6/ml) was cultured in RPMI containing 5% FCS. 200 μl of this suspension was seeded into each well of a 96 well culture plate. Either the antisense or sense oligonucleotides were added to the culture at a final concentration of 10 μM. The cell numbers were determined as an average of the triplicates and plotted in FIG. 14.

SUP-B15 cells [3] = experiment: Growth of SUP-B15 cells, trypan blue exclusion
Description: FIG. 20A, B15 cells cultured in 20% FCS containing RPMI media with either the 3′ BCR antisense oligonucleotides (10 μM at day 1) (open squares) or the sense oligonucleotides (10 μM at day 1) (closed squares).
The biological effects of the 3′ BCR antisense oligonucleotide treatment were tested on SUP-B15 cells. SUP-B15 cells were seeded in triplicate wells at a concentration of 1.6×10^5 cells/ml in a 200 μl volume of RPMI media supplemented with 20% FCS. Oligonucleotides were added to the cells at a final concentration of 10 μM. Cell number was monitored by trypan blue exclusion assay for 9 days. The mean cell number of the triplicates was determined each day (FIG. 20A).

Substance: 5′ATCATCACCGACACATCC 3′ (phosphotriester linkages at both ends, further chemistry not given here) [3′ BCR antisense oligonucleotide]
- Amount of p160 BCR/p185 BCR-ABL complexes [1]: reduced
- Reduction in Abl protein, anti-sense compared to sense (c-Abl; Western blot 8E9, densitometer): about 26%
- Reduction of c-Abl level, antisense versus sense treated cells (c-Abl; quantitation of FIG. 12): ~1.35 fold
- Confluence compared to sense treated cells (M3.16 cells): more confluent
- Level of BCR protein, antisense compared with sense treated cells (p160 BCR; 7 days treatment): much lower levels
- Reduction of p160 BCR normalized for the amount of Abl protein (c-Abl as internal control) (p160 BCR; day 7, antisense compared to sense): about 10 fold
- Reduction of p160 BCR, antisense versus sense treated cells (p160 BCR; day 7, densitometer quantitation of FIG. 13 lanes 1 and 3): about 14 times
- Reduction of the amount of Bcr by anti-sense (p160 BCR; seven days, phosphorimager analyses): about 14 fold
- Reduction in Bcr-Abl protein, anti-sense compared to sense (P185 BCR-ABL; Western blot 8E9, densitometer): 35%
- Expression of p185 BCR-ABL (P185 BCR-ABL; Western blot with anti-Abl monoclonal antibody): not significantly altered
- Reduction of Bcr-Abl level, antisense versus sense treated cells (P185 BCR-ABL; quantitation of FIG. 12): about 1.6 fold
- Survival compared to sense oligonucleotide treatment (SUP-B15 cells [2]): increased survival
- Number of viable cells relative to sense-treated cells (SUP-B15 cells [2]; after five days of treatment): about twice
- Growth density compared to sense oligonucleotide treatment (SUP-B15 cells [3]; RPMI 20% FCS, 10 μM, 9 days): sustained a higher growth density
- Live cells relative to sense treated cultures (SUP-B15 cells [3]; seven days in culture): twice
